These results are taken from a melting point compilation (Tetko et al.; mined from patent text by program, amines drawn as free bases though some values may be those of a salt).

Bounds are passed on as bounds.

Broadly, the melting point is the temperature, or range, at which the solid turns liquid. As for `O=C(Nc1cccc(C(F)(F)F)c1)c1cccc2cc(OS(=O)(=O)C(F)(F)F)ccc12`, the melting point is 177 to 178 °C.

Compound `COc1ccccc1Oc1c(Cl)nc(N)nc1Cl` had a melting point of 190 °C.

On to `COc1ccc2ccc(N3C(=O)c4ccccc4C3OC(=O)CCCNC(C)=O)nc2n1` (centres undefined), for which the melting point amounted to 190 °C.

Consider `C(=N\c1c(-c2ccccc2)cc(-c2ccccc2)cc1-c1ccccc1)/c1ccccn1`, for which the melting point was 141 to 144 °C.

Turning to `COCCOc1ccc(/C=C/COC(=O)NS(=O)(=O)NCCN2CCCC2)c(Oc2ncc(C(F)(F)F)cc2Cl)c1`, the melting point was 154 to 156 °C.

Regarding `CCOC(=O)C=CC(=O)c1ccc(-c2ccc(F)cc2)cc1`, the melting point lay within 115 to 117 °C.

`CC1(C)CC(N2CCCC2)c2sccc2O1` (centres undefined) returned a melting point of 49 to 50 °C.

In the case of `NS(=O)(=O)c1cccc(-c2noc(-c3cnn4c(C(F)(F)F)cc(-c5cccc(C(F)(F)F)c5)nc34)n2)c1`, the melting point was found to be 251 °C.

`CNC(=O)C(c1ccc(F)cc1)c1ccc(F)cc1`: the melting point lay within 179 to 180 °C.

Consider `Cc1ccc(-n2nc(C(F)F)cc2-c2ccc(S(C)(=O)=O)cc2)cc1F`, for which the melting point lay in the range of 161 to 162 °C.

In turn, `O=C(O)c1ccc(-c2nc(-c3ccccc3C(F)(F)F)cs2)cc1` displayed a melting point of 225 to 227 °C.

Compound `O=C(NC(Oc1ccc(Cl)cc1)C(Cl)(Cl)Cl)c1ccccc1O` (centres undefined) displayed a melting point of 116 to 117 °C.

On to `CN1C[C@H](CN2CCN(C(c3ccccc3)c3ccccc3)CC2)C=C2c3cccc4[nH]cc(c34)C[C@H]21`, for which the melting point is over 200 °C.

Compound `Cc1cc(C(=O)O)c2c(c1)C(C(Cl)(Cl)Cl)OC(C(Cl)(Cl)Cl)O2` (centres undefined) returned a melting point of 290 to 291 °C.

In the case of `C=CCC1(Cc2nc[nH]c2C)CCc2c(C)c3ccccc3n2C1=O` (centres undefined), the melting point is 209 to 210 °C.

`COC(=O)C1=C(C)NC(C)=C(C(=O)OCCN2CCN(c3ccc(F)cc3)CC2)C1c1cccc(Cl)c1` (centres undefined): the melting point was in the range of 44 to 49 °C.

`O=C1c2nccc(Cl)c2-c2nc3ccccc3c3ccnc1c23` had a melting point of over 260 °C.

In turn, `COC(=O)c1[nH]c2c(C)ccc(C)c2c1SC` displayed a melting point of 82 to 85 °C.

As for `C=CCc1cc(C(=O)O)ccc1O`, the melting point lay within 119 to 123 °C.

`O=c1c2c(Cl)cc(Cl)cc2n(Cc2ccccc2)c(=O)n1Cc1cccc(F)c1`: the melting point was in the range of 112 to 116 °C.

`C=C(C)CN(CC(=O)O)c1c(N)c(=O)c1=O` yielded a melting point of 184 to 186 °C.

With `CCCOC(=O)Nc1nc2ccccc2c2c1nc(COCC)n2CC(C)(C)NS(C)(=O)=O`, the melting point lay within 125 to 127 °C.

Turning to `CC(C)NCCCC[C@@H](N)C(=O)O`, the melting point turned out to be 224 °C.

Compound `N#Cc1nc(Cl)ccc1[N+](=O)[O-]` showed a melting point of 115 to 117 °C.

`COc1ccc2[nH]c(C)c(/C=C/C(=O)c3ccncc3)c2c1` yielded a melting point of 256 to 259 °C.

`COc1ccc2c(c1)c(CC(=O)NO)c(C)n2C(=O)c1ccc(Cl)cc1` showed a melting point of 181 to 183 °C.

The compound `Cc1ccccc1-c1nc(-c2ccccc2Cl)n[nH]1` returned a melting point of 109 to 111 °C.

The compound `O=C(c1ccc(Br)cc1F)N1CCN(c2ccncc2)CC1` displayed a melting point of 125 to 126 °C.

Compound `CS(=O)(=O)c1ccc(C2=C(c3ccc(F)cc3)C(=O)OC2)cc1` had a melting point of 166 to 167 °C.

Compound `FC(F)(F)c1nc(-c2ccc(Cl)cc2)c(-c2ccc(Cl)cc2)s1` registered a melting point of 101 to 102 °C.

Compound `COC(=O)CC(C(=O)c1cccc(OCc2ccccc2)c1)c1ccccc1` (racemic) displayed a melting point of 88 to 89 °C.

Compound `CC(C)C(C)(C#N)N1C(=O)c2ccc3ccn(C)c3c2C1=O` (centres undefined) yielded a melting point of 134 to 138 °C.

Regarding `CCn1c(=O)c(=O)[nH]c2ccc([N+](=O)[O-])cc21`, the melting point was over 300 °C.

Take `N#Cc1c[nH]cc1-c1cccc(F)c1`: the melting point was in the range of 140 to 142 °C.

Consider `COc1ccc(C(=O)Nc2ccccc2)cc1NC(=NC#N)Nc1cc(Cl)cc(Cl)c1`, for which the melting point is 225 to 227 °C.

On to `O=C1CCC(c2ccccc2)(c2ccccc2)[C@@H]2CN(C(=O)Cc3ccccc3O)C[C@H]12` (racemic), for which the melting point was found to be 232 °C.

On to `CCOC(=O)C(=C1CCCN1C)c1cc(OC)c(OC)c(OC)c1`, for which the melting point fell in the range of 115 to 116 °C.

`CCC(O)c1cc(C)nc(Oc2c(C)cc(C)cc2C)c1C` (centres undefined) displayed a melting point of 119 to 120 °C.

The compound `CC(=O)OC1CSC(Oc2ccc(-c3ccc(Cl)nc3)nc2)C(OC(C)=O)C1OC(C)=O` (centres undefined) displayed a melting point of 204 °C.

Turning to `Cc1cc(C)c2c(n1)N(CCCCl)c1ccccc1N(C)C2=O`, the melting point lay in the range of 161 to 163 °C.

`CN1CCC/C1=C\c1nc(-c2ccc(F)cc2)c(-c2ccncc2)n1CCCc1ccccc1` showed a melting point of 171 to 172 °C.

Compound `O=C(O)CN(CC(=O)O)c1cc(OCCCCCCCCCCCCOc2ccccc2)cc(OCCCCCCCCCCCCOc2ccccc2)c1` gave a melting point of 72 to 74 °C.

`C=CCc1c(O)ccc2ccc(=O)n(CC=C(C)C)c12` showed a melting point of 138 to 142 °C.

`CC(=O)Nc1c(C)cc2c(nc3n2CCC3)c1[N+](=O)[O-]` yielded a melting point of 198 °C.

In turn, `O=[N+]([O-])c1cccc(Cl)c1NCc1ccccc1Cl` registered a melting point of 69 to 71 °C.

Compound `Cc1ccc(N2C(=O)NC(=O)C23CCN(C(=O)c2ccccc2)CC3)cc1` displayed a melting point of 242 to 244 °C.

Consider `CC1CC(=O)N(c2ccc(F)cc2)C(=S)C1` (centres undefined), for which the melting point lay within 84.5 to 87.5 °C.

In turn, `Brc1ccc(-c2ccc(Br)cc2-c2nc3ccccc3[nH]2)c(-c2nc3ccccc3[nH]2)c1` came in with a melting point of 326 to 328 °C.

Turning to `CON(C)C(=O)NC(CS)Cc1ccccc1` (single isomer, unassigned; (+)), the melting point came to 50 °C.

In turn, `COc1ccc(-c2nc(N)sc2-c2ccnc(N)c2)cc1` registered a melting point of 251 to 254 °C.

The compound `CC1(C)CC(=O)Nc2ccc(Br)cc21` had a melting point of 176 to 179 °C.

`COC(=O)c1cscc1OC(C)=O` yielded a melting point of 56 to 58 °C.

Take `CC(C)(C)CC(=O)c1c(CC(C)(C)C(=O)O)n(Cc2ccc(Cl)cc2)c2ccc(OCc3ccc4ccccc4n3)cc12`: the melting point was in the range of 183 to 184 °C.

`COC(=O)c1cc(-n2cnnc2)c(C(F)(F)F)cc1N` returned a melting point of 184 to 186 °C.

Regarding `CC1=C(CC(=O)O)CN(C)N1`, the melting point lay in the range of 191 to 192 °C.

The compound `OCc1nc(-c2ccccc2)ccc1Cl` registered a melting point of 69 to 70 °C.

`Cc1cn(-c2ccc(N)c(C(F)(F)F)c2)c(C)n1` yielded a melting point of 126 to 127 °C.

`Cn1c(=O)sc2cc(N)ccc21`: the melting point fell in the range of 188 to 190 °C.

`CCOC(=O)Cc1ccc(NC(=O)C(CO)NS(=O)(=O)c2ccc(F)cc2)cc1` (racemic) registered a melting point of 148 to 150 °C.

In turn, `Nc1nc2ccccc2c2c1nc(O)n2Cc1cccnc1` had a melting point of over 250 °C.

Compound `CCCCOc1c(CNC(=O)OC(C)(C)C)n(CC(C)C)c(=O)c2ccc(C(C)=O)cc12` came in with a melting point of 161 to 162 °C.

The compound `CCOC(=O)c1cn(C2COC2)c2c(F)c(F)cc(F)c2c1=O` had a melting point of 169 to 171 °C.

For the compound `CCC(=O)c1c[nH]c2c(OC)cccc2c1=O`, the melting point lay within 260 to 263 °C.

Compound `O=C(OC1CCCCC1)c1ncn2c1[C@@H]1CCCN1C(=O)c1c-2cccc1C(F)(F)F` yielded a melting point of 193 to 194 °C.

As for `Cn1c(=O)c(-c2ccc(Cl)cc2Cl)cc2c3cc(-c4nc(NS(C)(=O)=O)no4)ccc3n(C)c21`, the melting point was in the range of 263 to 266 °C.

Take `CCN(CC)C(=O)c1ccc[nH]1`: the melting point lay within 78.6 to 79.9 °C.

The compound `CCCCCCCCCCCCCCOc1ccc(CN(C(=O)NC)c2cccc(CBr)c2)cc1` gave a melting point of 70 to 73 °C.

In turn, `CCC(=O)c1cc2c(=O)n(NS(C)(=O)=O)c(=O)[nH]c2cc1C(F)(F)F` had a melting point of 234 to 236 °C.

In turn, `CC(C)C(NC(=O)OC(C)(C)C)C(=O)OC(O)C(=O)C1C(C)CC2C3CC(F)C4=CC(=O)C=CC4(C)C3C(O)CC21C` (centres undefined) yielded a melting point of 166 to 168 °C.

For `COC(=O)c1cc(-c2c(-c3ccccc3)nn3ccccc23)cn(C)c1=O`, the melting point is 268 to 270 °C.

Turning to `CCn1cc(-c2ccc(F)c(C)c2)nc1COCc1ccccc1`, the melting point was 200 °C.

In the case of `CCCCCCCCCCCCCCCCCCCCCCOS(=O)(=O)c1ccc(Cl)cc1`, the melting point lay within 74 to 75 °C.

Compound `O=C(O)c1ccccc1-c1cc(-c2ccccc2)on1` returned a melting point of 144 to 146 °C.

With `CCC1(CC)NC(=O)C(CC)(CC)N1OC(C)(C)C#N`, the melting point was 125 to 130 °C.

In turn, `CC(C)c1nc(CN(C)C(=O)N[C@H](C(=O)O)C(C)C)cs1` came in with a melting point of 82.8 to 93.8 °C.

`CC(CC(=O)O)Nc1cccc(Cl)c1` (centres undefined) returned a melting point of 50 °C.

Consider `N#Cc1ccc(OCCCCOc2cccc(-c3cc4cc(C#N)ccc4o3)c2)cc1`, for which the melting point was 130 to 132 °C.

For the compound `O=C1CCS(=O)(=O)c2sccc21`, the melting point fell in the range of 121 to 122 °C.

Take `CC(C)(C)OC(=O)N(Cc1ccccc1)C1(CO)CC1`: the melting point was found to be 68 °C.

Consider `CCCCC(C(=O)OC)c1cccc(C(=O)c2cc3cc(C(=O)OC)sc3s2)c1` (centres undefined), for which the melting point was 95 °C.

In the case of `COC12CC(C3(c4cncc(Br)c4)N=NCS3)CN(C)C1Cc1cn(C)c3cccc2c13` (centres undefined), the melting point was 131 to 137 °C.

`CCOC(=O)C1Oc2ccc(Cl)c(Cl)c2O1` (centres undefined) had a melting point of 58 to 61 °C.

For `O=C(NCc1ccccc1Cl)C1Cc2ccccc2N1S(=O)(=O)c1ccc(-c2cccc(C(F)(F)F)c2)cc1` (centres undefined), the melting point was in the range of 142 to 144 °C.

In the case of `O=C1OC(=O)c2cc(Oc3ccc(-c4ccccc4)cc3)ccc21`, the melting point is 199 °C.

Turning to `Cc1[nH]c2ccc(CCN(C)C3CCCCC3)cc2c1C(=O)OCc1ccccc1`, the melting point was 122 to 124 °C.

The compound `CC(C)(NC(=O)CCNC(=O)c1ccccc1)c1ccccc1` yielded a melting point of 147 to 148 °C.

Regarding `Oc1ccc(C2CCOC2(c2ccccc2)c2ccc(O)cc2)cc1` (centres undefined), the melting point is 194 to 196 °C.

`O=C(c1cccs1)c1cnn2c(-c3cccc(NCc4ccccc4)c3)ccnc12`: the melting point lay within 90 to 92 °C.

Compound `CN1C(C)(C(=O)OC(C)(C)C)COS1(=O)=O` (centres undefined) registered a melting point of 54 to 55 °C.
